Literature values, collected in patent US11643424B2, “Cardiopathy-reducing phosphodiester lipids” (Signpath Pharma, Inc., priority 2018, dated 2023).

Tested on: K+ current
Settings: cited from earlier work

SMILES: CCCCc1oc2ccc(NS(C)(=O)=O)cc2c1C(=O)c1ccc(OCCCN(CCCC)CCCC)cc1 [Dronedarone]
- reduction of K+ current: 69%
